Reference: PubChem BioAssay (NCI)
Where “and” joins values, the source holds several entries; their conditions need not be identical. Equal values may be shown once.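 Cells were grown in 96-well plates and exposed to each compound for 48 hours at five concentrations; endpoints were interpolated linearly between bracketing concentrations, or set to the highest concentration if not reached. Here, GI50 denotes the concentration required for 50% inhibition of growth. TGI marks complete inhibition of growth.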

What was measured:
Experiment in all cases: NCI-60 cell line screen, 48 h
[1] = test system: OVCAR-5 ovarian
[2] = test system: 786-0 renal
[3] = test system: UACC-257 melanoma
[4] = test system: SK-MEL-28 melanoma
[5] = test system: KM20L2 colon
[6] = test system: HOP-62 NSCLC
[7] = test system: RXF 393 renal
[8] = test system: SNB-19 CNS
[9] = test system: SNB-78 CNS
[10] = test system: MCF7 breast

SMILES	GI50 [1]	TGI [1]	GI50 [2]	TGI [2]	GI50 [3]	TGI [3]	GI50 [4]	TGI [4]	GI50 [5]	TGI [5]	GI50 [6]	TGI [6]	GI50 [7]	TGI [7]	TGI [8]	TGI [9]	GI50 [8]	GI50 [10]	TGI [10]
CC(=O)[CH-]C(=O)c1ccccc1.CC(=O)[CH-]C(=O)c1ccccc1.CC(=O)[CH-]C(=O)c1ccccc1.[Cl-].[Hf+4]	22.8 µM	71.8 µM	25.7 µM	> 100 µM	19.9 µM	75.3 µM	23.6 µM	85.3 µM	25.1 µM	> 100 µM	51.2 µM	> 100 µM	47.4 µM	> 100 µM	–	–	–	–	–
CC(=O)[CH-]C(=O)c1ccccc1.CC(=O)[CH-]C(=O)c1ccccc1.CC[C@H](CCC(C)[C@H]1CCC2[C@@H]3CC=C4C[C@@H]([O-])CC[C@]4(C)C3CC[C@@]21C)C(C)C.CC[C@H](CCC(C)[C@H]1CCC2[C@@H]3CC=C4C[C@@H]([O-])CC[C@]4(C)C3CC[C@@]21C)C(C)C.Cl.[Ti+4] (some centres not stated)	–	> 25 µM	–	> 25 µM	–	> 25 µM	–	> 25 µM	> 25 µM	> 25 µM	–	> 25 µM	> 25 µM	> 25 µM	> 25 µM	–	–	–	–
COC1(OC)CCC2(C)OC(c3ccccc3)C1O2 (configuration not stated)	–	> 100 µM	–	> 100 µM	–	> 100 µM	–	> 100 µM	–	> 100 µM	–	> 100 µM	–	> 100 µM	> 100 µM	–	–	–	–
CC12CCC(=O)N1[C@@H](c1ccccc1)[C@@H](c1ccccc1)O2 (some centres not stated)	–	> 100 µM	–	> 100 µM	–	> 100 µM	–	–	–	> 100 µM	–	> 100 µM	–	–	> 100 µM	–	–	–	–
NC(N)=NCCCC(Nc1c2ccccc2nc2ccccc12)C(=O)O (configuration not stated)	–	> 100 µM	–	> 100 µM	–	> 100 µM	–	> 100 µM	–	> 100 µM	–	–	–	> 100 µM	–	–	–	–	–
NNC(=O)N/N=C(/CC1(O)C(=O)Nc2ccc(Br)cc21)c1ccccc1 (configuration not stated)	–	–	–	> 100 µM	–	> 100 µM	–	> 100 µM	–	> 100 µM	–	–	–	–	46.2 µM	> 100 µM	–	–	–
Cc1[nH]c2ccccc2c1/C=C/c1c(C)[nH]c2ccccc12	–	> 100 µM	–	> 100 µM	–	> 100 µM	–	> 100 µM	–	> 100 µM	–	> 100 µM	–	> 100 µM	–	> 100 µM	–	–	–
C=C1C2CCCC1C1(S(C)(=O)=O)CCCCC21O (configuration not stated)	–	> 100 µM	–	> 100 µM	–	> 100 µM	–	> 100 µM	–	> 100 µM	–	–	–	–	> 100 µM	> 100 µM	–	–	–
COc1cc(C(=O)/C=C/c2cccnc2Nc2ccc(Cl)cc2)cc(OC)c1OC	1.74 µM	3.32 µM	1.46 µM	2.78 µM	1.5 µM	2.92 µM	1.72 µM	3.12 µM	–	–	1.65 µM	3.13 µM	1.26 µM	2.61 µM	2.88 µM	–	1.52 µM	1020 nM	2.35 µM
CCN(CC)CCOc1ccc2c(-c3ccccc3)c(-c3ccc(OC)cc3)c(=O)oc2c1	12 µM	24.9 µM	2.22 µM	5.37 µM	2.47 µM	7 µM	1.96 µM	4.38 µM	–	–	4.47 µM	16.8 µM	3.23 µM	13.7 µM	22.2 µM	–	10.2 µM	4330 nM	14.1 µM
O=C(CCl)N1CCN(c2ccccn2)CC1	–	35.1 µM	–	35.1 µM	–	65.5 µM	–	41.6 µM	–	–	–	46.2 µM	–	41.6 µM	> 100 µM	–	–	–	53 µM
N#Cc1c(-c2ccccc2)nc(SCC(O)CN2CCOCC2)nc1N1CCOCC1 (configuration not stated)	19 µM	> 100 µM	14.8 µM	> 100 µM	2.88 µM	45.7 µM	11.2 µM	> 100 µM	–	–	29 µM	> 100 µM	5.55 µM	31.8 µM	94.8 µM	–	15 µM	98 nM	8.51 µM
Cc1ncnc2c1ccn2[C@@H]1C[C@H](Oc2cc(C(F)F)c(F)c3c2CNCC3)[C@@H](O)[C@H]1O	> 100 µM	> 100 µM	> 100 µM	> 100 µM	> 100 µM	> 100 µM	> 100 µM	> 100 µM	–	–	> 100 µM	> 100 µM	> 100 µM	> 100 µM	> 100 µM	–	> 100 µM	> 100000 nM	> 100 µM
N#Cc1ncc(-c2ccc(C(F)(F)F)cc2)c(NC2CCCCCC2)n1	> 100 µM	> 100 µM	47.7 µM	> 100 µM	13.7 µM	> 100 µM	71.5 µM	> 100 µM	–	–	> 100 µM	> 100 µM	5.12 µM	> 100 µM	> 100 µM	–	15.3 µM	5680 nM	> 100 µM
Cc1c(Br)c(Br)c2c3c1nc(N1CCNCC1)n3CCC2	1.72 µM	3.54 µM	2.63 µM	7.33 µM	2.13 µM	4.2 µM	1.79 µM	3.39 µM	–	–	1.87 µM	4.87 µM	1.7 µM	3.41 µM	3.01 µM	–	1.56 µM	1750 nM	3.49 µM
COc1cc2c3c(n(CCCNCCCCN)c(=O)c2cc1OC)-c1cc2c(cc1C3=O)OCO2	13.5 µM	41 µM	2.27 µM	20.5 µM	16.8 µM	54.7 µM	4.49 µM	> 54.2 µM	–	–	0.836 µM	32.5 µM	0.301 µM	11.4 µM	18.8 µM	–	2.65 µM	82.9 nM	22.5 µM
N=C1C(c2nc3ccccc3c(=O)[nH]2)=C(O)CN1c1cccc(Cl)c1	> 30.8 µM	> 100 µM	4.05 µM	> 100 µM	> 100 µM	> 100 µM	> 22.3 µM	> 100 µM	–	–	4.7 µM	> 100 µM	2.6 µM	> 27.3 µM	> 100 µM	–	6.74 µM	4190 nM	> 100 µM
COc1ccc(/C=C/C(=O)OC2CC34CCNC35CC(OC5(OC)C2OC)c2ccc(OC)c(O)c24)cc1O (configuration not stated)	–	> 100 µM	22.2 µM and > 100 µM	52.3 µM and > 100 µM	–	> 100 µM	–	> 100 µM	–	–	–	> 100 µM	21.6 µM and > 100 µM	65.6 µM and > 100 µM	> 100 µM	–	–	–	> 100 µM

SMILES	GI50 [1]	TGI [1]	GI50 [2]	TGI [2]	GI50 [3]	TGI [3]	GI50 [4]	TGI [4]	GI50 [5]	TGI [5]	GI50 [6]	TGI [6]	GI50 [7]	TGI [7]	TGI [8]	TGI [9]	GI50 [8]	GI50 [10]	TGI [10]
O=C(Nc1nc2ccc(OC(F)(F)F)cc2s1)c1ccc(F)cc1	3.62 µM	27.6 µM	3.47 µM	> 100 µM	3.57 µM	26.7 µM	3.6 µM	> 100 µM	–	–	3.81 µM	26.9 µM	2.68 µM	13.7 µM	> 100 µM	–	3.74 µM	2120 nM	18.2 µM
CCNCCS(=O)(=O)NC[C@@]1(c2ccccc2)SC(NC(=O)C(C)(C)C)=NN1C(=O)C(C)(C)C	0.138 µM	> 100 µM	0.341 µM	> 100 µM	11.8 µM	> 76.9 µM	11.3 µM	> 100 µM	–	–	0.0353 µM	> 100 µM	< 0.0223 µM	> 62.2 µM	> 100 µM	–	–	< 10 nM	> 100 µM
CCCCCCCCCCCCCCCC(=O)OCC1OC(OCCCC)[C@H](O[C@@H]2OC(C)C(OC(=O)CCC)C(O)C2O)C(O)C1O (some centres not stated)	14.2 µM	27.6 µM	16.7 µM	30.8 µM	22.6 µM	61.4 µM	16.5 µM	32.1 µM	–	–	16.8 µM	30.8 µM	22.3 µM	61.2 µM	32.8 µM	–	15.4 µM	30100 nM	> 100 µM
COc1cccc(N2C(=N)/C(=C3\Nc4ccccc4S3)CC2=O)c1	> 100 µM	> 100 µM	4.91 µM	> 100 µM	> 100 µM	> 100 µM	> 100 µM	> 100 µM	–	–	2.73 µM	28.1 µM	2.61 µM	11.1 µM	> 100 µM	–	18.9 µM	6650 nM	> 100 µM
Oc1c(Cl)cc(Cl)c(Cl)c1Cc1c(O)c(Cl)cc(Cl)c1Cl	6.14 µM	19.1 µM	1.96 µM	11.8 µM	2.06 µM	9.3 µM	2.13 µM	15.9 µM	–	–	1.37 µM	12.1 µM	4.04 µM	22.4 µM	58.9 µM	–	0.908 µM	1340 nM	13.9 µM
COC12OCCN(C)C1=CC(=O)C1N=NCC12 (configuration not stated)	–	–	–	> 100 µM	–	> 100 µM	–	> 100 µM	–	–	–	–	–	> 100 µM	–	> 100 µM	–	–	–
Cc1cc2c3c(nc4ccccc42)C(=O)c2cccnc2-c3n1	1.09 µM	2.33 µM	0.148 µM	0.823 µM	0.169 µM	0.55 µM	0.976 µM	2.68 µM	–	–	0.316 µM	2.23 µM	1.17 µM	3.19 µM	1.66 µM	–	0.255 µM	21.2 nM	0.156 µM
COc1ccc(N=Nc2c(-c3ccccc3)nn(C(=O)CC(=O)Nc3ccc(OC)cc3)c2-c2ccccc2)cc1	–	> 100 µM	–	> 100 µM	–	> 100 µM	–	> 100 µM	–	–	–	> 100 µM	–	–	> 100 µM	> 100 µM	–	–	–
COC(=O)C1=C(C)N(NC(N)=O)C2(N)N(NC(N)=O)C(C)=C(C(=O)OC)C12C#N (configuration not stated)	–	> 100 µM	–	> 100 µM	–	> 100 µM	–	> 100 µM	–	> 100 µM	–	> 100 µM	–	–	> 100 µM	> 100 µM	–	–	–
Nc1ncc(-c2ccc3ncnc(N4CCc5cc(F)c(Cl)cc54)c3c2)cc1C=O	0.867 µM	> 100 µM	0.658 µM	> 100 µM	1.64 µM	> 100 µM	1.61 µM	> 100 µM	–	–	0.896 µM	> 100 µM	0.471 µM	2.14 µM	> 100 µM	–	2.28 µM	1700 nM	> 100 µM
O=C(O)C1CC[N-]CC1.O=C(O)C1CC[N-]CC1.[NH2-].[NH2-].[Pt+4]	> 100 µM	> 100 µM	> 100 µM	> 100 µM	> 100 µM	> 100 µM	> 100 µM	> 100 µM	–	–	> 100 µM	> 100 µM	> 100 µM	> 100 µM	> 100 µM	–	> 100 µM	> 100000 nM	> 100 µM
CC(C)(Oc1cccc(N2CCC[C@@H](C(=O)N(Cc3ccc(-c4cn[nH]c4)cc3)C3CC3)C2)c1)C(=O)N1CCNCC1	16.6 µM	32.2 µM	11.7 µM	25 µM	12.2 µM	25.9 µM	13.1 µM	26.1 µM	–	–	13.3 µM	28.5 µM	1.85 µM	8.26 µM	29.7 µM	–	15.1 µM	11600 nM	25.4 µM
O=C(O)c1cc(-c2ccc(-c3ccccc3)cc2)nc2cc3ccccc3cc12	–	> 100 µM	–	67.6 µM	–	> 100 µM	–	> 100 µM	–	–	–	> 100 µM	–	> 100 µM	> 100 µM	–	–	–	> 100 µM
O=C1NC(=NCCc2ccccc2F)S/C1=C\c1ccc2ncccc2c1	> 20.4 µM	> 25 µM	8.71 µM	> 25 µM	9.35 µM	> 25 µM	11.7 µM	> 25 µM	–	–	9.31 µM	> 25 µM	7.18 µM	> 25 µM	> 25 µM	–	5.68 µM	1680 nM	> 25 µM
C/C(=N\O)C1CC(CC(=O)O)C1(C)C (configuration not stated)	–	> 100 µM	–	> 100 µM	–	> 100 µM	–	> 100 µM	–	–	–	> 100 µM	–	> 100 µM	> 100 µM	–	–	–	> 100 µM
CCc1nc(N)nc(N)c1-c1ccc(N2CCNCC2)c([N+](=O)[O-])c1	–	> 100 µM	–	> 74.3 µM	–	57.7 µM	–	> 100 µM	–	–	–	> 91.8 µM	–	> 100 µM	> 100 µM	–	–	–	> 79.1 µM
CN(C)Cc1ccc(O)c(CN(C)C)n1	–	> 100 µM	–	> 100 µM	–	> 100 µM	–	> 100 µM	–	–	–	> 100 µM	–	> 100 µM	> 100 µM	–	–	–	> 100 µM
